Experimental data reported in patent publication US10758539B2, “Therapeutic compounds and uses thereof” (Kala Pharmaceuticals, Inc., priority 2013, dated 2020).
Where two headings read alike, the source gives them in different places. Each block holds one compound with its values, some of them ahead of it.

Key:
[1] = Particle size of compounds milled with PLURONIC F127 as MPP, by dynamic light scattering; type: physicochemical; settings: formulated as MPP, milled with PLURONIC F127, buffered with DPBS
Source text: The compounds of the present invention synthesized in accordance with the preceding Examples were formulated as mucus penetrating particles (MPP). Specifically, Compound 4 of Example 1, Compound 9 of Example 2, and Compound 13 of Example 3 were each milled in the presence of PLURONIC F127 (F127) to determine whether F127 1) aids particle size reduction to several hundreds of nanometers and 2) physically (non-covalently) coats the surface of generated nanoparticles with a mucoinert coating that would minimize particle interactions with mucus constituents and prevent mucus adhesion.
A milling procedure was employed in which an aqueous dispersion containing coarse drug particles and PLURONIC F127 (F127) was milled with grinding medium until particle size was reduced below 400 nm as measured by dynamic light scattering. Table 4 lists the size of particles and polydispersity index (a measure of the width of the particle size distribution) generated using this technique. In this example suspensions were buffered using DPBS (Dulbecco's Phosphate-Buffered Saline) which yields a suspension that is both isotonic and has a physiologically relevant pH.

[2] = Pharmacokinetic study, back of the eye drug exposure after topical instillation of MPP; type: in vivo, Dutch-belted rabbits; settings: Dutch-belted, rabbit, topical or ocular, 50 μL of 0.5% MPP, MPP 0.5%, 50 μL topical, BID 5 days, 8 mm round punch
Source text: (§1) Dutch-belted rabbits were used in these studies.
The portion of the retina and choroid collected and analyzed was an 8 mm round punch where the macula is located in humans.

[3] = Draize-Ocular Irritation assessment during the PK study; type: in vivo, Dutch-belted rabbits; settings: MPP 0.5%, 50 μL topical, BID 5 days
Source text: as §1

[4] = Physical and chemical stability of Compound 4 solutions at ambient temperature; type: physicochemical; settings: 20-25° C.
Description: In this example, Compound 4 was formulated as a solution for topical ocular administration. Solutions of Compound 4 were formulated at a range of concentrations. Briefly, Compound 4 was first completely solubilized using an acidic solution (0.1N HCl) at a high concentration of ˜5% (w/v). The final formulation was diluted to 0.5, 0.1, or 0.05% (w/v) Compound 4 into 20 mM Citrate buffered solution containing TWEEN 80 as described in Table 7. Following dilution, the pH's of the formulations were estimated to be ˜5.5-6.5, using a universal pH indicator solution (Ricca).
Solution physical and chemical stability at ambient temperature (20-25° C.) were evaluated 10-21 days after initial formulation (tfinal). Physical stability was assessed visually. No precipitation or sedimentation in any samples was observed. All formulations maintained good chemical stability, within 10% of target concentration at tfinal. The API purity as defined by % peak area for all formulations were also high, at >99% (Table 8). Formulations pH's were also measured using a universal pH indicator solution (RICCA) and confirmed be similar to those at initial time of formulation.

[5] = target API 0.05% (w/v), TWEEN 80 0.05% (w/v), tfinal 13 days
[6] = target API 0.10% (w/v), TWEEN 80 0.1% (w/v), tfinal 21 days
[7] = target API 0.50% (w/v), TWEEN 80 4% (w/v), tfinal 10 days

Structure (SMILES): COc1cc2c(Oc3ccc4[nH]c(C)cc4c3F)ncnc2cc1OCCCN1CCC2(CC1)COC2 [Compound 4, 7-(3-(4-(4-fluoro-2-methyl-1H-indol-5-yloxy)-6-methoxyquinazolin-7-yloxy)propyl)-2-oxa-7-azaspiro[3.5]nonane]
Particle Size [1]: 270 nm
Polydispersity Index (PDI) [1]: 0.142
AUC(0-t) ([2]; choroid, read-out: AUC0-last Choroid): 37.2 µM·h
Cmax ([2]; choroid, read-out: Cmax Choroid): 3.9 µM
AUC(0-t) ([2]; retina, read-out: AUC0-last Retina): 1.15 µM·h
Cmax ([2]; retina, read-out: Cmax Retina): 0.193 µM
Draize-Ocular Irritation [3]: no irritation was seen
API % (w/v) at t = tfinal [4, 5]: 0.05 % (w/v)
API % peak area at t = tfinal [4, 5]: 99.45%
API % (w/v) at t = tfinal [4, 6]: 0.11 % (w/v)
API % peak area at t = tfinal [4, 6]: 99.47%
API % (w/v) at t = tfinal [4, 7]: 0.51 % (w/v)
API % peak area at t = tfinal [4, 7]: 99.27%

Particle Size [1]: 165 nm
Polydispersity Index (PDI) [1]: 0.227
Structure (SMILES): CCCNC(=O)n1c(C)cc2c(F)c(Oc3ncnc4cc(OC)c(OC)cc34)ccc21 [Compound 13, 5-(6,7-Dimethoxyquinazolin-4-yloxy)-4-fluoro-2-methyl-N-propyl-1H-indole-1-carboxamide]
